In patent US9902725B2, “Heterocyclic derivatives as RORgamma modulators” (GENFIT, priority 2014, dated 2018):

These compounds were tested against T1, RORγt ligand-binding domain (RORγt-LBD) (Homo sapiens, UniProt P51449) (assay: Time-resolved FRET (TR-FRET) RORγt coactivator assay). Conditions: GST-RORγ-LBD, biotinylated RIP140 peptide, coactivator displacement.
T1 construct: 20 nM recombinantly expressed RORγ-LBD fused to GST
T1 sequence (P51449 269-508 limits assumed): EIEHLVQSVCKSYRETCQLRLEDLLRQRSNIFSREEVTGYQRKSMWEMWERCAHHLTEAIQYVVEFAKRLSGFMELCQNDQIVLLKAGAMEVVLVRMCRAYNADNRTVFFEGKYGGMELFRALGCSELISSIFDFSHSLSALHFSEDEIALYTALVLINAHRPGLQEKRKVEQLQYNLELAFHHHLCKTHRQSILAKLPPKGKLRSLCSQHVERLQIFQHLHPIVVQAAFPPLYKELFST
Format: biochemical

IC50 [µM]	SMILES
< 1	CC(C)NC(=O)CCc1c[nH]c2ccc(CC(=O)NC(c3ccccc3)c3ccccc3N3CCCCC3)cc12 (stereo not shown) [compound 118, 3-{5-[({phenyl[2-(piperidin-1-yl)phenyl]methyl}carbamoyl)methyl]-1H-indol-3-yl}-N-(propan-2-yl)propanamide]
1 to 10	CN(C)Cc1ccccc1C(NC(=O)Cc1ccc2[nH]cc(CCC(=O)OC(C)(C)C)c2c1)c1ccccc1 (stereo not shown) [compound 121, tert-butyl 3-(5-{[({2-[(dimethylamino)methyl]phenyl}(phenyl)methyl)carbamoyl]methyl}-1H-indol-3-yl)propanoate]
1 to 10	O=C(O)CCc1c[nH]c2ccc(CC(=O)NC(c3ccccc3)c3ccccc3N3CCCC(O)C3)cc12 (stereo not shown) [compound 124, 3-{5-[({[2-(3-hydroxypiperidin-1-yl)phenyl](phenyl)methyl}carbamoyl)methyl]-1H-indol-3-yl}propanoic acid]
< 1	O=C(O)CCc1c[nH]c2ccc(CC(=O)NC(c3ccccc3)c3ccccc3N3CC=CCC3)cc12 (stereo not shown) [compound 128, 3-{5-[({phenyl[2-(1,2,3,6-tetrahydropyridin-1-yl)phenyl]methyl}carbamoyl)methyl]-1H-indol-3-yl}propanoic acid]
< 1	O=C(O)CCc1c[nH]c2ccc(CC(=O)NC3(c4ccccc4N4CCCC4)CCCC3)cc12 [compound 130, 3-{5-[({1-[2-(pyrrolidin-1-yl)phenyl]cyclopentyl}carbamoyl)methyl]-1H-indol-3-yl}propanoic acid]
< 1	Cc1ccc(C(NC(=O)Cc2ccc3[nH]cc(CCC(=O)O)c3c2)c2ncccn2)c(N2CCCCC2)c1 (stereo not shown) [compound 132, 3-{5-[({[4-methyl-2-(piperidin-1-yl)phenyl](pyrimidin-2-yl)methyl}carbamoyl)methyl]-1H-indol-3-yl}propanoic acid]
< 1	Cc1ccc(C(CC(C)C)NC(=O)Cc2ccc3[nH]cc(CCC(=O)O)c3c2)c(N(C)C)c1 (stereo not shown) [compound 134, 3-{5-[({1-[2-(dimethylamino)-4-methylphenyl]-3-methylbutyl}carbamoyl)methyl]-1H-indol-3-yl}propanoic acid]
< 1	Cc1cnc(C(NC(=O)Cc2ccc3[nH]cc(CCC(=O)O)c3c2)c2ccccc2N2CCCCC2)s1 (stereo not shown) [compound 154, 3-[5-({[(5-methyl-1,3-thiazol-2-yl)[2-(piperidin-1-yl)phenyl]methyl]carbamoyl}methyl)-1H-indol-3-yl]propanoic acid]
1 to 10	Cc1ncc(C(NC(=O)Cc2ccc3[nH]cc(CCC(=O)O)c3c2)c2ccccc2N2CCCCC2)s1 (stereo not shown) [compound 156, 3-[5-({[(2-methyl-1,3-thiazol-5-yl)[2-(piperidin-1-yl)phenyl]methyl]carbamoyl}methyl)-1H-indol-3-yl]propanoic acid]
< 1	Cc1ccc(C(NC(=O)Cc2ccc3[nH]cc(CCC(=O)O)c3c2)C2CC2)c2ccccc12 (stereo not shown) [compound 164, 3-[5-({[cyclopropyl(4-methylnaphthalen-1-yl)methyl]carbamoyl}methyl)-1H-indol-3-yl]propanoic acid]
1 to 10	O=C(O)Cc1c[nH]c2ccc(CC(=O)NC(c3ccccc3)c3cc(Cl)ccc3N3CCCCC3)cc12 (stereo not shown) [compound 166, 2-{5-[({[5-chloro-2-(piperidin-1-yl)phenyl](phenyl)methyl}carbamoyl)methyl]-1H-indol-3-yl}acetic acid]
1 to 10	O=C(O)CCc1c[nH]c2ccc(CC(=O)NC(c3ccccc3)c3cccc4cc[nH]c34)cc12 (stereo not shown) [compound 168, 3-[5-({[1H-indol-7-yl(phenyl)methyl]carbamoyl}methyl)-1H-indol-3-yl]propanoic acid]
< 1	Cn1ccc2cccc(C(NC(=O)Cc3ccc4[nH]cc(CCC(=O)O)c4c3)c3ccccc3)c21 (stereo not shown) [compound 170, 3-[5-({[(1-methyl-1H-indol-7-yl)(phenyl)methyl]carbamoyl}methyl)-1H-indol-3-yl]propanoic acid]
1 to 10	Cc1cccc(CC(NC(=O)Cc2ccc3[nH]cc(CCC(=O)O)c3c2)c2ccccc2N2CCCCC2)c1 (stereo not shown) [compound 176, 3-[5-({[2-(3-methylphenyl)-1-[2-(piperidin-1-yl)phenyl]ethyl]carbamoyl}methyl)-1H-indol-3-yl]propanoic acid]
10 to 30	CC(C)CC(NC(=O)Nc1cnc2[nH]cc(CCC(=O)O)c2c1)c1ccccc1N1CCCCC1 (stereo not shown) [compound 178, 3-{5-[({3-methyl-1-[2-(piperidin-1-yl)phenyl]butyl}carbamoyl)amino]-1H-pyrrolo[2,3-b]pyridin-3-yl}propanoic acid]
1 to 10	O=C(O)CCc1c[nH]c2ccc(CC(=O)NC(c3ccccc3)c3ccccc3N3CCC(F)(F)CC3)cc12 (stereo not shown) [compound 180, 3-{5-[({[2-(4,4-difluoropiperidin-1-yl)phenyl](phenyl)methyl}carbamoyl)methyl]-1H-indol-3-yl}propanoic acid]
< 1	CC(C)CC(NC(=O)Cc1ccc2[nH]cc(CCC(=O)O)c2c1)c1ccc(Br)cc1N1CCCC1 (stereo not shown) [compound 182, 3-{5-[({1-[4-bromo-2-(pyrrolidin-1-yl)phenyl]-3-methylbutyl}carbamoyl)methyl]-1H-indol-3-yl}propanoic acid]
1 to 10	Cc1ccc(C(NC(=O)Cc2ccc3[nH]cc(CCC(=O)O)c3c2)c2ccccc2)c(N)c1 (stereo not shown) [compound 184, 3-[5-({[(2-amino-4-methylphenyl)(phenyl)methyl]carbamoyl}methyl)-1H-indol-3-yl]propanoic acid]
< 1	O=C(O)CCc1c[nH]c2ccc(CC(=O)NC(CC3CCOCC3)c3ccccc3N3CCCCC3)cc12 (stereo not shown) [compound 190, 3-[5-({[2-(oxan-4-yl)-1-[2-(piperidin-1-yl)phenyl]ethyl]carbamoyl}methyl)-1H-indol-3-yl]propanoic acid]
1 to 10	CC(C)CC(NC(=O)Cc1ccc2[nH]cc(CC(=O)O)c2c1)c1ccccc1N1CCCCC1 (stereo not shown) [compound 194, 2-{5-[({3-methyl-1-[2-(piperidin-1-yl)phenyl]butyl}carbamoyl)methyl]-1H-indol-3-yl}acetic acid]
1 to 10	O=C(O)CCc1c[nH]c2ccc(CC(=O)NC(c3ccccc3)c3ccccc3N3CCOCC3)cc12 (stereo not shown) [compound 196, 3-{5-[({[2-(morpholin-4-yl)phenyl](phenyl)methyl}carbamoyl)methyl]-1H-indol-3-yl}propanoic acid]
< 1	CNc1cc(C)ccc1C(NC(=O)Cc1ccc2[nH]cc(CCC(=O)O)c2c1)c1ccccc1 (stereo not shown) [compound 204, 3-{5-[({[4-methyl-2-(methylamino)phenyl](phenyl)methyl}carbamoyl)methyl]-1H-indol-3-yl}propanoic acid]
1 to 10	O=C(Cc1ccc2[nH]cc(C(=O)O)c2c1)NC(c1ccccc1)c1ccccc1N1CCCCC1 (stereo not shown) [compound 206, 1-(2-{[2-(3-carboxy-1H-indol-5-yl)acetamido](phenyl)methyl}phenyl)piperidin-1-ium chloride]
1 to 10	Cc1ccc(C(NC(=O)Cc2ccc3[nH]cc(C(=O)O)c3c2)c2ccccc2)c(Br)c1 (stereo not shown) [compound 207, 5-({[(2-bromo-4-methylphenyl)(phenyl)methyl]carbamoyl}methyl)-1H-indole-3-carboxylic acid]
< 1	O=C(O)CCC(=O)c1c[nH]c2ccc(CC(=O)NC(c3ccccc3)c3ccccc3N3CCCCC3)cc12 (stereo not shown) [compound 213, 4-oxo-4-{5-[({phenyl[2-(piperidin-1-yl)phenyl]methyl}carbamoyl)methyl]-1H-indol-3-yl}butanoic acid]
